Type in all cases: cell-based
One data set relates to LN229 spheroids. Briefly: Cytotoxicity of LN229 spheroids after direct culture with compounds. To be noted: 48 hours of direct culture; N=12 wells per concentration.
The subject of another data set is A549/GFP tumor cells. The experiment in a line: NK induced cytotoxicity of A549/GFP tumor cells cultured in 3D. To be noted: NK cells exposed to SDF-1α without PGE2; 24 hours. Here is the method: (§1) A549/GFP Cells (Cell Biolabs, Inc. Cat. No. AKR-209), were seeded into 96 well spheroid microplates (Corning Cat. No. 4515) at 2,000 cells per well in Iscove's Modification of DMEM (IMDM) (Corning Cat. No. 10-016-CM) supplemented with 10% fetal bovine serum (FBS) (Corning Cat. No. 35-010-CV). The next day, medium was replaced with […] IMDM 10% FBS containing 30 ng/mL of Human SDF-1 alpha (SDF-1α)/CXCL12 (Shenandoah Biotechnology Inc™ Cat. No. 100-20) or vehicle control. NK92-MI cells were stained for one hour with 80 μM CellTracker™ Blue CMHC Dye (Molecular Probes™ Cat. No. C2110) while simultaneously being treated with 2 μg/mL prostaglandin E2 (PGE2) (Tocris Cat. No. 2296) or vehicle control in IMDM without serum for an hour. NK-92MI cells were then re-suspended in serum free IMDM and seeded into the apical chamber of the inserts at 50,000 cells/insert. After 24 hours, inserts were removed and spheroid microplates were processed for flow cytometry. […] Cells were then analyzed via flow cytometry utilizing the Miltenyi Biotec MacsQuant®.
(§2) NK-92MI migration and tumoricidal activity of A549/GFP cells was assessed utilizing the commercially available Corning HTS 96 Transwell inserts with the Corning 96 well spheroid microplate, as shown in FIG. 4 and FIG. 5. […]

A further data set has as its system NK-92MI cells. Briefly: NK-92MI (NK) cell migration through HTS Transwell towards A549/GFP 3D tumor spheroids, flow cytometry. To be noted: 24 hours. Here is the method:
as §1, §2

Regarding `COc1cc(/C=C/C(=O)N2CCC=CC2=O)cc(OC)c1OC` [Piperlongumine], the “cytotoxicity of LN229 spheroids” value with LN229 spheroids is recorded as “dose dependent cytotoxicity”. As to SDF-1α, the “viability of A549/GFP tumor cells (tumoricidal activity of NK cells)” value with A549/GFP tumor cells is recorded as “lowest viability”. In addition, in the data set on NK-92MI cells (30 ng/mL SDF-1α present with the tumor spheroid in the spheroid microplate), the NK migration result was “significantly increased”. With `CCCCC[C@H](O)/C=C/[C@H]1[C@H](O)CC(=O)[C@@H]1C/C=C\CCCC(=O)O` [PGE2, prostaglandin E2], the NK migration entry in the data set on NK-92MI cells (NK cells exposed to 2 μg/mL PGE2 for an hour) is “significantly decreased”.

(Values after patent US10859565B2, “High throughput 3D assay for immune cell and drug homing, migration and tumor cytotoxicity” (Corning Incorporated, priority 2017, dated 2020).)
